# Assay results: paper doi:10.1101/2025.09.05.673737v1 (biorxiv, 2025)
# Target: T1, ArpA (Streptomyces griseus, UniProt Q9ZN78)
# T1 sequence (Q9ZN78 1-276): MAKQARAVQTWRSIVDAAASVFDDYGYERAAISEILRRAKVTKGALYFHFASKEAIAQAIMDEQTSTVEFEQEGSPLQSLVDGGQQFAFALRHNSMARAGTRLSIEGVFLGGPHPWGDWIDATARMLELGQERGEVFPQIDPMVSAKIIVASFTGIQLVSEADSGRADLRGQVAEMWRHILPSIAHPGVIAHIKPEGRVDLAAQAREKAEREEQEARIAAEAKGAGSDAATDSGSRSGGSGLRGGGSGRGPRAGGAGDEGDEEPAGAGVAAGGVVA
# Assay: E. coli pTOTAL biosensor, GFP derepression dose-response
# Type: cell-based
row,EC50,SMILES
1,0.39 µM,CC(C)CCCCC(=O)C1C(=O)OC[C@H]1CO (some centres unmarked) [A-factor]
2,18.1 µM,CC(C)CCCC[C@@H](O)[C@@H]1C(=O)OC[C@H]1CO [SCB1]
